From ChEMBL document CHEMBL4052640 (Eur J Med Chem, 2017)

Assays:
Punta Toro virus = type: functional; conditions: Vero
[1] = system: Vesicular stomatitis virus; experiment: microbe, parasite or virus in culture; conditions: HeLa
[2] = system: Mammalian orthoreovirus 1; type: functional; conditions: Mammalian orthoreovirus 1, Vero
Coxsackievirus B4 [3] = type: functional; conditions: Enterovirus B, Vero
Sindbis virus = type: functional; conditions: Vero
Human respirovirus 3 = experiment: microbe, parasite or virus in culture; conditions: Human respirovirus 3, Vero
Coxsackievirus B4 [4] = type: functional, cell-based; conditions: Enterovirus B, HeLa
MDCK = experiment: Cytotoxicity against dog MDCK cells assessed as reduction in cell viability measured after 5 to 6 days by MTS assay; type: cell-based, Canis lupus familiaris
Yellow fever virus = experiment: microbe, parasite or virus in culture; conditions: Vero
cells [5] = conditions: Influenza A virus, MDCK
cells [6] = conditions: Influenza A virus, MDCK; remark: listed apart in the source
cells [7] = conditions: MDCK
[8] = system: Respiratory syncytial virus; type: functional, cell-based; conditions: human respiratory syncytial virus, HeLa
Influenza B virus = experiment: microbe, parasite or virus in culture; conditions: B/Ned/537/05, MDCK
Influenza A virus [9] = type: functional, cell-based; conditions: A/Ned/378/05(H1N1), MDCK
Influenza A virus [10] = type: functional, cell-based; conditions: A/Ned/378/05(H1N1), MDCK; remark: listed apart in the source

Row | Structure (SMILES) | EC50 (Punta Toro virus) [µM] | EC50 [1] [µM] | EC50 [2] [µM] | EC50 (Coxsackievirus B4 [3]) [µM] | EC50 (Sindbis virus) [µM] | EC50 (Human respirovirus 3) [µM] | EC50 (Coxsackievirus B4 [4]) [µM] | CC50 (MDCK) [µM] | EC50 (Yellow fever virus) [µM] | EC50 (cells [5]) [µM] | EC50 (cells [6]) [µM] | EC50 (cells [7]) [µM] | EC50 [8] [µM] | EC50 (Influenza B virus) [µM] | EC50 (Influenza A virus [9]) [µM] | EC50 (Influenza A virus [10]) [µM]
1 | COc1ccc(N2C(N)=NC(N)=NC2(C)C)cc1 | > 100 | > 100 | > 100 | > 100 | > 100 | > 100 | > 100 | > 100 | > 100 | – | – | – | – | – | – | –
2 | CC1(C)N=C(N)N=C(N)N1c1cccc(F)c1 | > 100 | > 100 | 9.5 | > 100 | > 100 | > 100 | > 100 | > 100 | > 100 | 21 | > 100 | 0.2 | 0.01 | 1.7 | – | –
3 | CC1(C)N=C(N)N=C(N)N1c1cccc(Br)c1 | > 100 | > 100 | – | > 100 | > 100 | > 100 | > 100 | 29 | > 100 | > 100 | > 100 | – | – | – | – | –
4 | CC1(C)N=C(N)N=C(N)N1c1cc(C(F)(F)F)cc(C(F)(F)F)c1 | > 100 | > 100 | > 100 | > 100 | > 100 | > 100 | > 100 | > 100 | > 100 | 36 | > 100 | 0.8 | 0.27 | 1.8 | – | –
5 | NC1=NC2(CCCC2)N(c2cccc(C(F)(F)F)c2)C(N)=N1 | > 100 | > 100 | > 100 | > 100 | > 100 | > 100 | > 100 | > 100 | > 100 | > 100 | > 100 | 0.33 | 0.2 | 1.6 | – | –
6 | NC1=NC2(CCCC2)N(c2cccc(Cl)c2)C(N)=N1 | > 100 | > 100 | > 100 | > 100 | > 100 | > 100 | > 100 | > 100 | > 100 | 49 | > 100 | 0.4 | 0.22 | 4.5 | – | –
7 | NC1=NC2(CCCCC2)N(c2cccc(C(F)(F)F)c2)C(N)=N1 | > 100 | > 100 | > 100 | > 100 | > 100 | > 100 | > 100 | > 100 | > 100 | > 100 | > 100 | – | – | – | – | –
8 | CC1(C)N=C(N)N=C(N)N1c1ccc([N+](=O)[O-])cc1 | > 100 | > 100 | > 100 | > 100 | > 100 | > 100 | > 100 | > 100 | > 100 | > 83 | > 83 | 7.8 | 27 | 35 | > 100 | > 100
9 | NC1=NC2(CCCCC2)N(c2cccc(Cl)c2)C(N)=N1 | > 100 | > 100 | > 100 | > 100 | > 100 | > 100 | > 100 | > 100 | > 100 | > 100 | > 100 | 3 | – | 10 | – | –
10 | CC1(C)N=C(N)N=C(N)N1c1ccc(Br)cc1 | > 100 | > 100 | > 100 | > 100 | > 100 | > 100 | > 100 | 53 | > 100 | 19 | 39 | 1 | 0.16 | 2.9 | 7.3 | 21
11 | CC1(C)N=C(N)N=C(N)N1c1ccccc1 | > 100 | > 100 | > 100 | > 100 | > 100 | > 100 | > 100 | > 100 | > 100 | – | – | – | – | – | – | –
12 | Cc1ccc(N2C(N)=NC(N)=NC2(C)C)cc1 | > 100 | > 100 | > 100 | > 100 | > 100 | > 100 | > 100 | > 100 | > 100 | 34 | 53 | 1.2 | – | 11 | 34 | 48
13 | CC1(C)N=C(N)N=C(N)N1c1ccc(F)cc1 | > 100 | > 100 | > 100 | > 100 | > 100 | > 100 | > 100 | > 100 | > 100 | – | – | – | – | – | – | –
14 | CC1(C)N=C(N)N=C(N)N1c1cccc(Cl)c1 | > 100 | > 100 | – | > 100 | > 100 | > 100 | > 100 | 1.4 | > 100 | – | – | – | – | – | – | –
15 | NC12CC3CC(CC(C3)C1)C2 [AMANTADINE] | – | – | – | – | – | – | – | > 400 | – | 211 | 124 | > 400 | – | > 400 | 2.2 | 2.3
16 | CC1(C)N=C(N)N=C(N)N1c1ccc(Cl)cc1 [CYCLOGUANIL] | > 100 | > 100 | > 100 | > 100 | > 100 | > 100 | > 100 | 52 | > 100 | – | – | – | – | – | – | –
17 | COc1c(C)c2c(c(O)c1C/C=C(\C)CCC(=O)O)C(=O)OC2 [MYCOPHENOLIC ACID] | – | – | – | > 100 | 1.4 | 0.4 | – | – | 2.3 | – | – | – | – | – | – | –
18 | CCc1nc(N)nc(N)c1-c1ccc(Cl)cc1 [PYRIMETHAMINE] | > 100 | > 100 | – | – | – | – | > 100 | 41 | > 100 | > 83 | > 83 | – | – | – | – | –
19 | NC(=O)c1ncn([C@@H]2O[C@H](CO)[C@@H](O)[C@H]2O)n1 [RIBAVIRIN] | 29 | – | > 250 | > 250 | > 250 | – | – | – | > 250 | – | – | – | 5.8 | – | 7.6 | 10
20 | CC(N)C12CC3CC(CC(C3)C1)C2 (stereo not given) [RIMANTADINE] | – | – | – | – | – | – | – | > 400 | – | – | – | > 400 | – | > 400 | – | –
21 | CC(=O)N[C@H]1[C@H]([C@H](O)[C@H](O)CO)OC(C(=O)O)=C[C@@H]1N=C(N)N [ZANAMIVIR] | – | – | – | – | – | – | – | > 100 | – | 6.8 | 2.3 | 0.055 | – | 0.06 | – | –
